One experiment relates to CAL-12T. As to the kind of experiment: relative viability (nuclei count vs DMSO), 5 days (fraction); higher = more cells survive. Particulars: first compound 20 µM. A digest of the protocol:
(§1)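 A single step with final 0.05% Triton X-100, 1% formaldehyde and 1 ug/ml Hoechst fixed the cells and stained nuclei 5 days after treatment. Lung cancer cell lines in 1536-well plates had been treated by pin tool the day after seeding with one drug alone or a fixed anchor-drug dose plus five library-drug doses (not always all listed) in √10 steps, and nuclei were counted on 4× images. Relative viability is the ratio of nuclei in treated wells to nuclei in vehicle wells, taken as the median of duplicate plates.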
`COCC1(CO)C(=O)C2CCN1CC2` (stereo not given) [PRIMA-1MET] + CC(=O)Nc1cccc(-n2c(=O)n(C3CC3)c(=O)c3c(Nc4ccc(I)cc4F)n(C)c(=O)c(C)c32)c1 [Trametinib] (partner 0.02 µM) came in with a relative viability of 0.15.

Another experiment relates to NCI-H1437. The description is as above. The settings on record: first compound 0.2 µM. Put shortly:
as §1
Turning to `COCC1(CO)C(=O)C2CCN1CC2` (stereo not given) [PRIMA-1MET] + COc1cc2c(Oc3ccc(NC(=O)C4(C(=O)Nc5ccc(F)cc5)CC4)cc3F)ccnc2cc1OCCCN1CCOCC1 [Foretinib] (partner 0.25 µM), the relative viability was 1.32.
Still for that read-out and setting: the same measure for `COCC1(CO)C(=O)C2CCN1CC2` (stereo not given) [PRIMA-1MET] + NC(=O)Nc1cc(-c2cccc(F)c2)sc1C(=O)N[C@H]1CCCNC1 [AZD7762] (partner 0.2 µM): 1.16; for `COCC1(CO)C(=O)C2CCN1CC2` (stereo not given) [PRIMA-1MET] + Nc1nc2[nH]cc(CCc3ccc(C(=O)N[C@@H](CCC(=O)O)C(=O)O)cc3)c2c(=O)[nH]1 [Pemetrexed] (partner 0.2 µM): 0.32; for `COCC1(CO)C(=O)C2CCN1CC2` (stereo not given) [PRIMA-1MET] + CC(=O)Nc1cccc(-n2c(=O)n(C3CC3)c(=O)c3c(Nc4ccc(I)cc4F)n(C)c(=O)c(C)c32)c1 [Trametinib] (partner 0.02 µM): 0.631.
Same read-out and setting: the value for `COCC1(CO)C(=O)C2CCN1CC2` (stereo not given) [PRIMA-1MET] + Nc1ncn([C@H]2C[C@H](O)[C@@H](CO)O2)c(=O)n1 [Decitabine] (partner 2 µM) was 0.607.

The experiment is the same for the next values; noted with them: first compound 0.6325 µM.
The molecule `COCC1(CO)C(=O)C2CCN1CC2` (stereo not given) [PRIMA-1MET] + COc1cc2c(Oc3ccc(NC(=O)C4(C(=O)Nc5ccc(F)cc5)CC4)cc3F)ccnc2cc1OCCCN1CCOCC1 [Foretinib] (partner 0.25 µM) returned a relative viability of 1.21.
Molecule `COCC1(CO)C(=O)C2CCN1CC2` (stereo not given) [PRIMA-1MET] + NC(=O)Nc1cc(-c2cccc(F)c2)sc1C(=O)N[C@H]1CCCNC1 [AZD7762] (partner 0.2 µM) gave a relative viability of 1.09.
As to `COCC1(CO)C(=O)C2CCN1CC2` (stereo not given) [PRIMA-1MET] + Nc1nc2[nH]cc(CCc3ccc(C(=O)N[C@@H](CCC(=O)O)C(=O)O)cc3)c2c(=O)[nH]1 [Pemetrexed] (partner 0.2 µM), the relative viability is 0.284.
As for `COCC1(CO)C(=O)C2CCN1CC2` (stereo not given) [PRIMA-1MET] + CC(=O)Nc1cccc(-n2c(=O)n(C3CC3)c(=O)c3c(Nc4ccc(I)cc4F)n(C)c(=O)c(C)c32)c1 [Trametinib] (partner 0.02 µM), the relative viability worked out at 0.525.
On the same count and under the same terms, the same measure for `COCC1(CO)C(=O)C2CCN1CC2` (stereo not given) [PRIMA-1MET] + Nc1ncn([C@H]2C[C@H](O)[C@@H](CO)O2)c(=O)n1 [Decitabine] (partner 2 µM): 0.37.

The experiment is the same for the next values; noted with them: first compound 2 µM.
In turn, `COCC1(CO)C(=O)C2CCN1CC2` (stereo not given) [PRIMA-1MET] + COc1cc2c(Oc3ccc(NC(=O)C4(C(=O)Nc5ccc(F)cc5)CC4)cc3F)ccnc2cc1OCCCN1CCOCC1 [Foretinib] (partner 0.25 µM) registered a relative viability of 1.24.
The molecule `COCC1(CO)C(=O)C2CCN1CC2` (stereo not given) [PRIMA-1MET] + NC(=O)Nc1cc(-c2cccc(F)c2)sc1C(=O)N[C@H]1CCCNC1 [AZD7762] (partner 0.2 µM) gave a relative viability of 1.03.
In turn, `COCC1(CO)C(=O)C2CCN1CC2` (stereo not given) [PRIMA-1MET] + Nc1nc2[nH]cc(CCc3ccc(C(=O)N[C@@H](CCC(=O)O)C(=O)O)cc3)c2c(=O)[nH]1 [Pemetrexed] (partner 0.2 µM) came in with a relative viability of 0.308.
Still for that read-out and setting: the same measure for `COCC1(CO)C(=O)C2CCN1CC2` (stereo not given) [PRIMA-1MET] + CC(=O)Nc1cccc(-n2c(=O)n(C3CC3)c(=O)c3c(Nc4ccc(I)cc4F)n(C)c(=O)c(C)c32)c1 [Trametinib] (partner 0.02 µM): 0.449.
On the same count and under the same terms, the value for `COCC1(CO)C(=O)C2CCN1CC2` (stereo not given) [PRIMA-1MET] + Nc1ncn([C@H]2C[C@H](O)[C@@H](CO)O2)c(=O)n1 [Decitabine] (partner 2 µM) was 0.599.

Staying with this experiment, now noted: first compound 6.325 µM.
On to `COCC1(CO)C(=O)C2CCN1CC2` (stereo not given) [PRIMA-1MET] + COc1cc2c(Oc3ccc(NC(=O)C4(C(=O)Nc5ccc(F)cc5)CC4)cc3F)ccnc2cc1OCCCN1CCOCC1 [Foretinib] (partner 0.25 µM), for which the relative viability was 1.21.
Regarding `COCC1(CO)C(=O)C2CCN1CC2` (stereo not given) [PRIMA-1MET] + NC(=O)Nc1cc(-c2cccc(F)c2)sc1C(=O)N[C@H]1CCCNC1 [AZD7762] (partner 0.2 µM), the relative viability turned out to be 1.12.
The same measure, in the same setting: the same measure for `COCC1(CO)C(=O)C2CCN1CC2` (stereo not given) [PRIMA-1MET] + Nc1nc2[nH]cc(CCc3ccc(C(=O)N[C@@H](CCC(=O)O)C(=O)O)cc3)c2c(=O)[nH]1 [Pemetrexed] (partner 0.2 µM): 0.298; for `COCC1(CO)C(=O)C2CCN1CC2` (stereo not given) [PRIMA-1MET] + CC(=O)Nc1cccc(-n2c(=O)n(C3CC3)c(=O)c3c(Nc4ccc(I)cc4F)n(C)c(=O)c(C)c32)c1 [Trametinib] (partner 0.02 µM): 0.546; for `COCC1(CO)C(=O)C2CCN1CC2` (stereo not given) [PRIMA-1MET] + Nc1ncn([C@H]2C[C@H](O)[C@@H](CO)O2)c(=O)n1 [Decitabine] (partner 2 µM): 0.59.

The same experiment, now with this note: first compound 20 µM.
Take `COCC1(CO)C(=O)C2CCN1CC2` (stereo not given) [PRIMA-1MET] + COc1cc2c(Oc3ccc(NC(=O)C4(C(=O)Nc5ccc(F)cc5)CC4)cc3F)ccnc2cc1OCCCN1CCOCC1 [Foretinib] (partner 0.25 µM): the relative viability came to 1.17.
As for `COCC1(CO)C(=O)C2CCN1CC2` (stereo not given) [PRIMA-1MET] + NC(=O)Nc1cc(-c2cccc(F)c2)sc1C(=O)N[C@H]1CCCNC1 [AZD7762] (partner 0.2 µM), the relative viability stood at 1.05.
Still for that read-out and setting: the value for `COCC1(CO)C(=O)C2CCN1CC2` (stereo not given) [PRIMA-1MET] + Nc1nc2[nH]cc(CCc3ccc(C(=O)N[C@@H](CCC(=O)O)C(=O)O)cc3)c2c(=O)[nH]1 [Pemetrexed] (partner 0.2 µM) was 0.283.
Take `COCC1(CO)C(=O)C2CCN1CC2` (stereo not given) [PRIMA-1MET] + CC(=O)Nc1cccc(-n2c(=O)n(C3CC3)c(=O)c3c(Nc4ccc(I)cc4F)n(C)c(=O)c(C)c32)c1 [Trametinib] (partner 0.02 µM): the relative viability stood at 0.479.
On the same count and under the same terms, the same measure for `COCC1(CO)C(=O)C2CCN1CC2` (stereo not given) [PRIMA-1MET] + Nc1ncn([C@H]2C[C@H](O)[C@@H](CO)O2)c(=O)n1 [Decitabine] (partner 2 µM): 0.552.

The subject of a further experiment is 201T. Described as above. The settings on record: first compound 0.2 µM. A digest of the protocol: as §1
`COCC1(CO)C(=O)C2CCN1CC2` (stereo not given) [PRIMA-1MET] + COc1cc2c(Oc3ccc(NC(=O)C4(C(=O)Nc5ccc(F)cc5)CC4)cc3F)ccnc2cc1OCCCN1CCOCC1 [Foretinib] (partner 0.25 µM) showed a relative viability of 1.33.
The same measure, in the same setting: the value for `COCC1(CO)C(=O)C2CCN1CC2` (stereo not given) [PRIMA-1MET] + NC(=O)Nc1cc(-c2cccc(F)c2)sc1C(=O)N[C@H]1CCCNC1 [AZD7762] (partner 0.2 µM) was 0.484; that for `COCC1(CO)C(=O)C2CCN1CC2` (stereo not given) [PRIMA-1MET] + Nc1nc2[nH]cc(CCc3ccc(C(=O)N[C@@H](CCC(=O)O)C(=O)O)cc3)c2c(=O)[nH]1 [Pemetrexed] (partner 0.2 µM) was 0.302; that for `COCC1(CO)C(=O)C2CCN1CC2` (stereo not given) [PRIMA-1MET] + CC(=O)Nc1cccc(-n2c(=O)n(C3CC3)c(=O)c3c(Nc4ccc(I)cc4F)n(C)c(=O)c(C)c32)c1 [Trametinib] (partner 0.02 µM) was 0.757.

These data come from the supplement of paper PMC10307832.
